Results on 17 compounds are retold here after patent publication US8148388B2, “2,4 (4,6) pyrimidine derivatives” (Janssen Pharmaceutica, N.V., priority 2004, dated 2012).

Read-outs that look alike come from different tables or passages of the source.

One data set addresses ErbB2 (h) (Homo sapiens, UniProt P04626). Description: ErbB2 human kinase assay (filter). The class given is biochemical. To be noted: read-out: C13 ERBB 2 Filter Score. On the procedure:
(§1) Similarly to the above the in vitro inhibition of two other kinases, i.e. human ErbB2 and human ErbB4 was tested for some of the compounds according to the invention.
(§2) In a final reaction volume of 25 μl, ErbB2 (h) (5-10 mU) is incubated with 8 mM MOPS pH 7.0, 0.2 mM EDTA, 10 mM MnCl2, 0.1 mg/ml poly(Glu, Tyr) 4:1, 10 mM MgAcetate and [γ-33P-ATP] (specific activity approx. 500 cpm/pmol, concentration as required). The reaction is initiated by the addition of the MgATP mix. After incubation for 40 minutes at room temperature, the reaction is stopped by the addition of 5 μl of a 3% phosphoric acid solution. 10 μl of the reaction is then spotted onto a Filtermat A and washed three times for 5 minutes in 75 mM phosphoric acid and once in methanol prior to drying and scintillation counting.

For another data set, the target named is T1, EGFR-kinase domain (Homo sapiens, UniProt P00533).
T1 construct: 0.5 μg EGFR-kinase domain/well
Description: In vitro inhibition of EGFR (Flash Plate assay). The class given is biochemical. To be noted: full dose response 1.10^−6M to 1.10^−10M, read-out: C12 EGFR flash Score. The method, then: The in vitro inhibition of EGFR was assessed using either the Flash Plate technology or the glass-fiber filter technology as described by Davies, S. P. et al., Biochem J. (2000), 351; p. 95-105. The Flash Plate technology is generally described by B. A. Brown et al. in High Throughput Screening (1997), p. 317-328. Editor(s): Devlin, John P. Publisher: Dekker, New York, N.Y.
In the Flash Plate EGFR kinase reaction assay, a kinase substrate consisting of biotinylated poly(L-glutamic acid-L-tyrosine) (poly(GT)biotin), is incubated with the aforementioned protein in the presence of (^33P) radiolabeled ATP. (^33P) phosphorylation of the substrate is subsequently measured as light energy emitted using a streptavidin-coated Flash Plate (PerkinElmer Life Sciences) by trapping and quantifying the binding of the biotin tagged and radiolabeled substrate.
The EGFR kinase reaction is performed at 30° C. for 60 minutes in a 96-well microtiter FlashPlate (PerkinElmer Life Sciences). For each of the tested compounds a full dose response 1.10^−6M to 1.10^−10M has been performed. IRESSA® and Tarceva™ (erlotinib) were used as reference compounds. The 100 μl reaction volume contains 54.5 mM TrisHCl pH 8.0, 10 mM MgCl2, 100 μM Na3VO4, 5.0 μM unlabeled ATP, 1 mM DTT, 0.009% BSA, 0.8 μCi AT^33P, 0.35 μg/well poly(GT)biotin and 0.5 μg EGFR-kinase domain/well.
The reaction is stopped by aspirating the reaction mixture and washing the plate 3× with 200 μl wash/stop buffer (PBS+100 mM EDTA). After the final wash step 200 μl of wash/stop buffer was added to each well and the amount of phosphorylated (^33P) Poly(GT)biotin determined by counting (30 sec/well) in a microtiterplate scintillation counter.

In another data set the target is ErbB4 (h) (Homo sapiens, UniProt Q15303). In words: ErbB4 human kinase assay (filter). Type of data set: biochemical. To be noted: read-out: C14 ERBB 4 Filter Score. The method, then:
as §1
as §2, with “ErbB4” for “ErbB2”

For the next data set, the target named is Lyn (h) (Homo sapiens, UniProt P07948). Description: Lyn human kinase assay (glass-fiber filter). Type of data set: biochemical. To be noted: test concentration of 10^−6M; read-out: C10 score (inhibition of Lyn human). The essentials:
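Human Lyn (5-10 mU) phosphorylating poly(Glu,Tyr) 4:1 at 0.1 mg/ml with [γ-33P]ATP (concentration as required) in 50 mM Tris pH 7.5, 10 mM Mg acetate, 40 min at room temperature. Stopped with phosphoric acid; substrate-bound radioactivity counted on glass-fibre filter.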

A further data set deals with Abl (h) (Homo sapiens, UniProt P00519). In words: Abl human kinase assay (glass-fiber filter). Type of data set: biochemical. To be noted: test concentration of 10^−6M; read-out: C1 score (inhibition of Abl human).
In another data set the target is Flt3 (h) (Homo sapiens, UniProt P36888). Description: Flt3 human kinase assay (glass-fiber filter). The class given is biochemical. Particulars: test concentration of 10^−6M; read-out: C6 score (inhibition of Flt3 human). Put shortly:
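Human Flt3 (5-10 mU) with 50 μM peptide substrate in 8 mM MOPS pH 7.0, 0.2 mM EDTA, 10 mM Mg acetate and [γ-33P]ATP (concentration as required), 40 min at room temperature. Reaction stopped with phosphoric acid; substrate 33P incorporation counted on P30 glass-fiber filter.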

The target of the next data set is Yes (h) (Homo sapiens, UniProt P07947). Description: Yes human kinase assay (glass-fiber filter). The class given is biochemical. To be noted: test concentration of 10^−6M; read-out: C11 score (inhibition of Yes human). Put shortly: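 Yes (h) (5-10 mU) with 0.1 mg/ml poly(Glu, Tyr) 4:1 in 8 mM MOPS pH 7.0, 0.2 mM EDTA, 10 mM MgAcetate and [γ-^33P-ATP], 40 minutes at room temperature. Stopped with phosphoric acid; substrate-bound ^33P counted on glass-fiber filter by scintillation.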

For another data set, the target named is Fms (h) (Homo sapiens, UniProt P07333). In words: Fms human kinase assay (glass-fiber filter). Type of data set: biochemical. Particulars: test concentration of 10^−6M; read-out: C7 score (inhibition of Fms human). Put shortly:
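Radiometric filter-binding assay: Fms (5-10 mU) with 250 μM peptide substrate and [γ-33P]ATP in 8 mM MOPS pH 7.0, 10 mM Mg acetate, 40 min at room temperature. Reaction stopped with phosphoric acid; substrate-bound 33P counted on P30 filtermat.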

The next data set has as its target Lck (h) (Homo sapiens, UniProt P06239). In words: Lck human kinase assay (glass-fiber filter). The class given is biochemical. Particulars: test concentration of 10^−6M; read-out: C9 score (inhibition of Lck human). Put shortly: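 Kinase activity measured as transfer of (^33P) from radiolabeled MgATP to substrate, captured on P30 glass-fiber filtermat, washed in 75 mM phosphoric acid and methanol, then scintillation counted.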

For a further data set, the target named is cSRC (h) (Homo sapiens, UniProt P12931). In words: cSRC human kinase assay (glass-fiber filter). Type of data set: biochemical. Particulars: test concentration of 10^−6M; read-out: C3 score (inhibition of cSRC human). The essentials: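 Radiometric assay: kinase and substrate are incubated with [33P]ATP, with the reaction started by MgATP mix. The reaction is spotted on P30 filtermat, washed in 75 mM phosphoric acid and methanol, and the bound 33P is measured by scintillation counting.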

The next data set has as its target Fes (h) (Homo sapiens, UniProt P07332). In words: Fes human kinase assay (glass-fiber filter). The class given is biochemical. To be noted: test concentration of 10^−6M; read-out: C4 score (inhibition of Fes human). Put shortly: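 Human Fes (5–10 mU) was incubated with 0.1 mg/ml poly(Glu,Tyr) 4:1 in 8 mM MOPS pH 7.0, 0.2 mM EDTA, 10 mM Mg acetate and [γ-33P]ATP for 40 min at room temperature. The reaction was stopped with phosphoric acid, and substrate phosphorylation was quantified by filter binding and scintillation counting.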

Sequence of ErbB2 (h) (P04626 23-1255): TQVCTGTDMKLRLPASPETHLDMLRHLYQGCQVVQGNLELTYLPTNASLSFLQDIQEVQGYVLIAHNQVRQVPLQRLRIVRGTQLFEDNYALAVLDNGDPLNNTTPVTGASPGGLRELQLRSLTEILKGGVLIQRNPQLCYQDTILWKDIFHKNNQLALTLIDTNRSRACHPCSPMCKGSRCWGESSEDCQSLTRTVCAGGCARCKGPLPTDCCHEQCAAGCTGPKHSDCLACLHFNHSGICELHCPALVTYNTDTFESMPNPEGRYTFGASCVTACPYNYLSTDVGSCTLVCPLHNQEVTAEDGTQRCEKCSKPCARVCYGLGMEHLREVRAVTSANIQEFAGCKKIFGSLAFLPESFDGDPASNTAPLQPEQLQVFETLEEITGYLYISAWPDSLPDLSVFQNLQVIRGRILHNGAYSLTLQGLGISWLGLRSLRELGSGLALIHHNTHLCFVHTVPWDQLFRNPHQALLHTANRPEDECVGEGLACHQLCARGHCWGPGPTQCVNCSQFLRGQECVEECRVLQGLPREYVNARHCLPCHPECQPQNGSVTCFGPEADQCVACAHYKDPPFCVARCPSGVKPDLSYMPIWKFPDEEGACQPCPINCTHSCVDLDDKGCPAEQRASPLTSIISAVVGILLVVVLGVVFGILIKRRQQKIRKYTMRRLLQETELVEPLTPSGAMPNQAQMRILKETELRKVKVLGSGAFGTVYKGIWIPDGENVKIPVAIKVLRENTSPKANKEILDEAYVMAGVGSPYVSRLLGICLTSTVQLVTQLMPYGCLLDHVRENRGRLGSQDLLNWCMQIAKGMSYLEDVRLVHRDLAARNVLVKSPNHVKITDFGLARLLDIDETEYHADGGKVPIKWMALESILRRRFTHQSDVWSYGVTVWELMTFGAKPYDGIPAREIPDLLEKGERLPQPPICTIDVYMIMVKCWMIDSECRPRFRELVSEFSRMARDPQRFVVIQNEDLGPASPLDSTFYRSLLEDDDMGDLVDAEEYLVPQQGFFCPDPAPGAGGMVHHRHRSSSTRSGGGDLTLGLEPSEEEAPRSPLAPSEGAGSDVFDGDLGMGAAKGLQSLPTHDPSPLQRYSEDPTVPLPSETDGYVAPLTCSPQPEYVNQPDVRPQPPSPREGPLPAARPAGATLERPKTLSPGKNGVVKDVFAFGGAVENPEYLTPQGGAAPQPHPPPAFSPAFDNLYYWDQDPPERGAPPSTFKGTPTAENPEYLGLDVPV
Sequence of ErbB4 (h) (Q15303 26-1308): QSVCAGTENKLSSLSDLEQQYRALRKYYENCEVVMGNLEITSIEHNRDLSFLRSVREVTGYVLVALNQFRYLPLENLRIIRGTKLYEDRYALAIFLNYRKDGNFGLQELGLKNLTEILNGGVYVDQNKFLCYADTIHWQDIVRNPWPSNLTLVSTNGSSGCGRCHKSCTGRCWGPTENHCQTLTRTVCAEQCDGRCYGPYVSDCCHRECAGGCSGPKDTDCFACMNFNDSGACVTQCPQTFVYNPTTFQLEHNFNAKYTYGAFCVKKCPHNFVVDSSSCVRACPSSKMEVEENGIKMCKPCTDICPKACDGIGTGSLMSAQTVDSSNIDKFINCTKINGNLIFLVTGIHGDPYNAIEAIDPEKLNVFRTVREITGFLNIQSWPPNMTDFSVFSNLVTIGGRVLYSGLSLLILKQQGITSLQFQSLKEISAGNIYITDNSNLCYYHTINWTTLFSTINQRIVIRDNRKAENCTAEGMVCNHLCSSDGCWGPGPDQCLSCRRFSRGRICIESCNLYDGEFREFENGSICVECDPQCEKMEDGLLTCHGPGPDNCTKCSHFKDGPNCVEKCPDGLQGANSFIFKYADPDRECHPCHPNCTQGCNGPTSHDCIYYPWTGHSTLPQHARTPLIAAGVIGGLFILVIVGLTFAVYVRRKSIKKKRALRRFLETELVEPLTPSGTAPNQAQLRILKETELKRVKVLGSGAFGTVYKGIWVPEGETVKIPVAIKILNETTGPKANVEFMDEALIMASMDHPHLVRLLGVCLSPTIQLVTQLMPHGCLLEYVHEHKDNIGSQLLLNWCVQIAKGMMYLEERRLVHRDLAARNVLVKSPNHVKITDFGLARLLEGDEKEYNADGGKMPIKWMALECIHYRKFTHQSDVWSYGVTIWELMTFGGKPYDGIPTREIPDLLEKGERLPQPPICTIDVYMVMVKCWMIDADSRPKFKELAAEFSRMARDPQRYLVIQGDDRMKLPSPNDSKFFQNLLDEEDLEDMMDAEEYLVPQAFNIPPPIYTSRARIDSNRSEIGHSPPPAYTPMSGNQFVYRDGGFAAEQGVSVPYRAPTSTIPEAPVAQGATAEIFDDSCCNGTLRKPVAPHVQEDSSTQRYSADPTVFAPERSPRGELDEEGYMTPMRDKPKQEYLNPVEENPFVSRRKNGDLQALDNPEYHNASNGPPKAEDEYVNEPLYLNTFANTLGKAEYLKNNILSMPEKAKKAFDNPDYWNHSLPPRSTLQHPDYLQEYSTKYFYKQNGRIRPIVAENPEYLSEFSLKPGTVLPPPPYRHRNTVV
T1 sequence (P00533 712-979 limits assumed): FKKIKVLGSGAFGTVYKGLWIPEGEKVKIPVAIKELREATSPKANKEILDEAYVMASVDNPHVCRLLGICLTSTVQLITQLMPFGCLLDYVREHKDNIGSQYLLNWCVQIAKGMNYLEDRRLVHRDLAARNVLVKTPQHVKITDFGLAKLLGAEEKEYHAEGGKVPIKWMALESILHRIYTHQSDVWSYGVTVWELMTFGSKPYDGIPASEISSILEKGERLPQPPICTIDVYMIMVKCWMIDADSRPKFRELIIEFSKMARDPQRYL
Sequence of Flt3 (h) (P36888 27-993): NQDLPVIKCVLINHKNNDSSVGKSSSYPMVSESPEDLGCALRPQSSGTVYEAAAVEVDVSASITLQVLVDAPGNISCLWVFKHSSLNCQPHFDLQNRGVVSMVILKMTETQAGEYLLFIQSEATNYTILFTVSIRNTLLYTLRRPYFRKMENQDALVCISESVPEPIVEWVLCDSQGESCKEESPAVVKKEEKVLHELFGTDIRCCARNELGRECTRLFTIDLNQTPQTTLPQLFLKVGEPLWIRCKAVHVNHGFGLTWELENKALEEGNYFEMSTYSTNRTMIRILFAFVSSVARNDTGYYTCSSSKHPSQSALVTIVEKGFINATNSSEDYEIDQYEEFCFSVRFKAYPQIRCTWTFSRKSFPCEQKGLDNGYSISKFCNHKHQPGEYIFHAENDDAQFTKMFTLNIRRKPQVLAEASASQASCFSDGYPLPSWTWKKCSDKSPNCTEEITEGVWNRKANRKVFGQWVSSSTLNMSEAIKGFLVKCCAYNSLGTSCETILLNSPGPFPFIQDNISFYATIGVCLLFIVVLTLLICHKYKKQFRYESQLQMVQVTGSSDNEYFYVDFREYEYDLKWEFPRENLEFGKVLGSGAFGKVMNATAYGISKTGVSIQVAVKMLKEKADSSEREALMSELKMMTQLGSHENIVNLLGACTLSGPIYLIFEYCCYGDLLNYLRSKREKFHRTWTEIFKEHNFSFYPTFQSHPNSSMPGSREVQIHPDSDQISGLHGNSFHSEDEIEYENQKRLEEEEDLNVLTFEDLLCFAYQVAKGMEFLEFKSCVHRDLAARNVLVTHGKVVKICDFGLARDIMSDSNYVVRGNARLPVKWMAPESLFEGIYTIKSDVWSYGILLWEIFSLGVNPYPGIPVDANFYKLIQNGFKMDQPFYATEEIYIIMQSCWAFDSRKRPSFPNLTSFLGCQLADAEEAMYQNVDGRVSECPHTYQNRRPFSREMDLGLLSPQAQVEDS
Sequence of Fes (h) (P07332 whole entry): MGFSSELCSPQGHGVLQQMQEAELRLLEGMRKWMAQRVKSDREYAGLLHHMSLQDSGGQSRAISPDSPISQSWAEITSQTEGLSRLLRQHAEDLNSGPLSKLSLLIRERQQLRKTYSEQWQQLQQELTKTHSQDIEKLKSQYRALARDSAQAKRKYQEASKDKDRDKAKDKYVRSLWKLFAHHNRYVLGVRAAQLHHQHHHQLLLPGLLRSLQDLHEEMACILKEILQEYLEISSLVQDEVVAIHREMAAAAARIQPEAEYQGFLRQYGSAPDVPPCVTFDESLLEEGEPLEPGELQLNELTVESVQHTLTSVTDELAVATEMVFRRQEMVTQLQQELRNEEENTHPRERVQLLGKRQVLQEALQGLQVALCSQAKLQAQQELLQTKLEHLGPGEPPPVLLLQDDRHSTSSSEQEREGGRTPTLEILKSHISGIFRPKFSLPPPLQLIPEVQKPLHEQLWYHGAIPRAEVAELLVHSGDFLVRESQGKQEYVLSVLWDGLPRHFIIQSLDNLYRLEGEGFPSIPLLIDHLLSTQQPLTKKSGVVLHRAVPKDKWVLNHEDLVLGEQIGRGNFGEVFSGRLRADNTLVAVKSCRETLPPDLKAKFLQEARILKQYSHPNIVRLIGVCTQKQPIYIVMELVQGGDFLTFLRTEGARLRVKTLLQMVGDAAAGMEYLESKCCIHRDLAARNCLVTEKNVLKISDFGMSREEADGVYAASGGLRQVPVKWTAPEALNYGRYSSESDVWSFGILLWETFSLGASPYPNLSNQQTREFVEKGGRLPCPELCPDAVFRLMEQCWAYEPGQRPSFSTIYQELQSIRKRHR
Sequence of Lck (h) (P06239 whole entry): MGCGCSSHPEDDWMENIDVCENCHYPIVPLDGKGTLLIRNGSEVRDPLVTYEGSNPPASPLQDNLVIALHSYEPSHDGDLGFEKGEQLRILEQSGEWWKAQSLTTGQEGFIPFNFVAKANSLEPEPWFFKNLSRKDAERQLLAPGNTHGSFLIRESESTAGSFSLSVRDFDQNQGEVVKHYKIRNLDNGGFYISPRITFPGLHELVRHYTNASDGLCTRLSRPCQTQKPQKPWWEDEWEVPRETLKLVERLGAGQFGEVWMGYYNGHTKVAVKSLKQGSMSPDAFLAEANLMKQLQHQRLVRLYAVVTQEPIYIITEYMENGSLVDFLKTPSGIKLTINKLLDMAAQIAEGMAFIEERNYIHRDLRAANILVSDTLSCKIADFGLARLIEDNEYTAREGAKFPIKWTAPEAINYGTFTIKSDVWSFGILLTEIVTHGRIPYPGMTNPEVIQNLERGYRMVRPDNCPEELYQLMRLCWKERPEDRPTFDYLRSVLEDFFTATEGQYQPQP

For the compound `CCN1CCNC(=O)COc2cccc(c2)Nc2cc(ncn2)Nc2cccc(c2)C1` [Compound 161], the IC50 on ErbB2 (h) is 1000 to 10000 nM; on EGFR-kinase domain, below 1000 nM; at ErbB4 (h), below 1000 nM.

For `CCN1CCNC(=O)C(Cc2ccc(C(F)(F)F)cc2)NC(=O)CN(C)Cc2cccc(c2)Nc2cc(ncn2)Nc2cccc(c2)C1` (stereo not drawn) [Compound 156], the IC50 at ErbB2 (h) is 1000 to 10000 nM; at EGFR-kinase domain it was below 1000 nM; at ErbB4 (h), below 1000 nM.

Regarding `O=C1CN2CCN(CC2)Cc2cccc(c2)Nc2cc(ncn2)Nc2cccc(c2)CCN1` [Compound 164], the IC50 at ErbB2 (h) was 1000 to 10000 nM; at ErbB4 (h), below 1000 nM.

Turning to `O=C1COc2cccc(c2)Nc2nccc(n2)Nc2cccc(c2)OCCCCN1` [Compound 4, 14,22-dioxa-2,4,8,19,29-pentaazatetracyclo[21.3.1.1˜3,7˜.1˜9,13˜]nonacosa-1(27),3,5,7(29),9,11,13(28),23,25-nonaen-20-one], the ring closure, yield of all isomers (from NCCCCOc1cccc(Nc2ccnc(Nc3cccc(OCC(=O)O)c3)n2)c1, amide bond, HBTU, DMF, 7.67 mM, 25.0 °C, 2.0 h) is 9%. Also, the inhibition (commonly the percentage by which the read-out fell short of the control) at 1 µM on Lyn (h) was 10 to 30%; on Abl (h), 10 to 30%; on Flt3 (h), above 80%; on Yes (h), 30 to 60%; at Fms (h) it was 60 to 80%; at Lck (h), 30 to 60%. The inhibition at 1 µM at cSRC (h) and on Fes (h) was 30 to 60% throughout.

As for `CC(C)CC1NC(=O)CN(C)Cc2cccc(c2)Nc2cc(ncn2)Nc2cccc(c2)CNC1=O` (stereo not drawn) [Compound 149], the results for the IC50 at ErbB2 (h), on EGFR-kinase domain and on ErbB4 (h) were 1000 to 10000 nM, below 1000 nM and below 1000 nM, respectively.

With `O=C1COc2cccc(c2)Nc2cc(ncn2)Nc2cccc(c2)CCN1` [Compound 160], the results for the IC50 at ErbB2 (h), on EGFR-kinase domain and on ErbB4 (h) were 1000 to 10000 nM, below 1000 nM and 1000 to 10000 nM, respectively.

In turn, `COc1ccc2cc1OCCNC(=O)C(Cc1ccccc1)NCc1cccc(c1)Nc1cc(ncn1)N2` (stereo not drawn) returned a ring closure, yield of all isomers (from COc1ccc(Nc2cc(Nc3cccc(CNC(Cc4ccccc4)C(=O)O)c3)ncn2)cc1OCCN, amide bond, HBTU, DMF, 3.85 mM, 1.0 h) of 14%.

With `CN1CC(=O)NC(CCc2ccccc2)C(=O)NCc2cccc(c2)Nc2cc(ncn2)Nc2cccc(c2)C1` (stereo not drawn) [Compound 152], the IC50 on ErbB2 (h), on EGFR-kinase domain and at ErbB4 (h) was below 1000 nM throughout.

As to `CCN1CCNC(=O)C(CC(C)C)NC(=O)CN(C)Cc2cccc(c2)Nc2cc(ncn2)Nc2cccc(c2)C1` (stereo not drawn) [Compound 154], the IC50 on ErbB2 (h) and at EGFR-kinase domain was 1000 to 10000 nM throughout.

Consider `COc1ccc2cc1OCCNC(=O)COc1cccc(c1)Nc1cc(ncn1)N2` [Compound 162], for which the IC50 at ErbB2 (h) is 1000 to 10000 nM; on EGFR-kinase domain it was below 1000 nM; on ErbB4 (h) it was 1000 to 10000 nM.

Take `CN(C)CCCCC1NC(=O)CN(C)Cc2cccc(c2)Nc2cc(ncn2)Nc2cccc(c2)CNC1=O` (stereo not drawn) [Compound 148]: the IC50 on ErbB2 (h) is 1000 to 10000 nM; on EGFR-kinase domain, below 1000 nM; on ErbB4 (h), 1000 to 10000 nM.

Regarding `COc1ccc2cc1OCCCNC(=O)CCN1CCC(CC1)N(C)Cc1ccc(Cl)c(c1)Nc1cc(ncn1)N2` [Compound 216], on ErbB4 (h), the IC50 lay in the range of 1000 to 10000 nM.

Take `O=C1CN2CCN(CC2)Cc2cccc(c2)Nc2cc(ncn2)Nc2cccc(c2)OCCCCCN1` [Compound 112]: the IC50 at ErbB2 (h), at EGFR-kinase domain and at ErbB4 (h) was below 1000 nM each time.

Regarding `CN1CC(=O)N2CCC2C(=O)NCc2cccc(c2)Nc2cc(ncn2)Nc2cccc(c2)C1` (stereo not drawn) [Compound 151], the IC50 on ErbB2 (h), at EGFR-kinase domain and at ErbB4 (h) was below 1000 nM throughout.

With `C#CCC1NC(=O)CN(C)Cc2cccc(c2)Nc2cc(ncn2)Nc2cccc(c2)CNC1=O` (stereo not drawn) [Compound 150], the IC50 at ErbB2 (h), at EGFR-kinase domain and at ErbB4 (h) was below 1000 nM throughout.

`COCCOc1ccc2cc1OCCCCCN(C)Cc1cc(F)c(Cl)cc1Nc1cc(ncn1)N2`: where the note is “from COCCOc1ccc(Nc2cc(Nc3cc(Cl)c(F)cc3CN(C)CCCCCO)ncn2)cc1O, ether bond, 1,1'-(azodicarbonyl)dipiperidine (ADDP)/tributylphosphine, THF, 28.6 mM, 25.0 °C, 64.0 h”, the ring closure, yield of all isomers worked out at 44%.

The compound `N#Cc1cnc2nc1Nc1cccc(c1)C(=O)NCC(=O)NCc1cccc(c1)N2` [Compound 5, 2,4,8,15,18,26-hexaazatetracyclo[18.3.1.1˜3,7˜.1˜9,13˜]hexacosa-1(24),3,5,7(26),9,11,13(25),20,22-nonaene-6-carbonitrile, 14,17-dioxo-] displayed a ring closure, yield of all isomers (from N#Cc1cnc(Nc2cccc(CNC(=O)CN)c2)nc1Nc1cccc(C(=O)O)c1, amide bond, HBTU, DMF, 22.5 mM, 25.0 °C, 3.0 h) of 14%. The inhibition at 1 µM on Flt3 (h) fell in the range of 10 to 30%.
